Assay results reported in publication PMC2836207 (Journal of medicinal chemistry, 2009).

Target: MDA-MB-231 cells (Homo sapiens, UniProt P05556+P26006)
Experiment: on-bead whole cell binding assay
Assay type: cell-based
Details: cell-growth-on-bead assay

Sequence of MDA-MB-231 cells (P26006 33-1051): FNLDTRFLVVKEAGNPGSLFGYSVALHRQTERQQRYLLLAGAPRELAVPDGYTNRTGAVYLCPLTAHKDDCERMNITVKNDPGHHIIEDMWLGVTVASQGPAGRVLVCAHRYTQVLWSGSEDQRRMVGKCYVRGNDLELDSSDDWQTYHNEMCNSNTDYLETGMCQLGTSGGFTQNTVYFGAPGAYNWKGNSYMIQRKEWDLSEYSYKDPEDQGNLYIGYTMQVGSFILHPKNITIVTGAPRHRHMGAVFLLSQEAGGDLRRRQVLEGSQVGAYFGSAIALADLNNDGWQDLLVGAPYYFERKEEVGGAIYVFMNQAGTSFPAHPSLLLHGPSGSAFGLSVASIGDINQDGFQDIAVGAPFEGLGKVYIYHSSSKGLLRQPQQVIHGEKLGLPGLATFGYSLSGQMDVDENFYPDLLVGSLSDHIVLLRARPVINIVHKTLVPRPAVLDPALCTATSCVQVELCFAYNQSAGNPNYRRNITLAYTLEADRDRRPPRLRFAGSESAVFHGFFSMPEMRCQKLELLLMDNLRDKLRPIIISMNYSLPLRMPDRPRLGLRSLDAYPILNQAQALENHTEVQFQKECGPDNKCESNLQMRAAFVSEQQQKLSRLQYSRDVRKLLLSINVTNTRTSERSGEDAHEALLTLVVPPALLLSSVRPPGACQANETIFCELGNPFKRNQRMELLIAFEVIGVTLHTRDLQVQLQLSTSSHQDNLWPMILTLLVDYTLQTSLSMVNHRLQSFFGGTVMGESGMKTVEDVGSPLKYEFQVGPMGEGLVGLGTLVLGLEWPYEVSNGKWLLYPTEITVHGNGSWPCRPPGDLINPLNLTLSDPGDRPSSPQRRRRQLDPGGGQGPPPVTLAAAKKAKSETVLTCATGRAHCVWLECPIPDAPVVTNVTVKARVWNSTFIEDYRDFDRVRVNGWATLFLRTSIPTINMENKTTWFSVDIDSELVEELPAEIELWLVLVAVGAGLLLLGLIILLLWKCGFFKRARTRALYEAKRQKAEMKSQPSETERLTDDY
Sequence of MDA-MB-231 cells (P05556 21-798): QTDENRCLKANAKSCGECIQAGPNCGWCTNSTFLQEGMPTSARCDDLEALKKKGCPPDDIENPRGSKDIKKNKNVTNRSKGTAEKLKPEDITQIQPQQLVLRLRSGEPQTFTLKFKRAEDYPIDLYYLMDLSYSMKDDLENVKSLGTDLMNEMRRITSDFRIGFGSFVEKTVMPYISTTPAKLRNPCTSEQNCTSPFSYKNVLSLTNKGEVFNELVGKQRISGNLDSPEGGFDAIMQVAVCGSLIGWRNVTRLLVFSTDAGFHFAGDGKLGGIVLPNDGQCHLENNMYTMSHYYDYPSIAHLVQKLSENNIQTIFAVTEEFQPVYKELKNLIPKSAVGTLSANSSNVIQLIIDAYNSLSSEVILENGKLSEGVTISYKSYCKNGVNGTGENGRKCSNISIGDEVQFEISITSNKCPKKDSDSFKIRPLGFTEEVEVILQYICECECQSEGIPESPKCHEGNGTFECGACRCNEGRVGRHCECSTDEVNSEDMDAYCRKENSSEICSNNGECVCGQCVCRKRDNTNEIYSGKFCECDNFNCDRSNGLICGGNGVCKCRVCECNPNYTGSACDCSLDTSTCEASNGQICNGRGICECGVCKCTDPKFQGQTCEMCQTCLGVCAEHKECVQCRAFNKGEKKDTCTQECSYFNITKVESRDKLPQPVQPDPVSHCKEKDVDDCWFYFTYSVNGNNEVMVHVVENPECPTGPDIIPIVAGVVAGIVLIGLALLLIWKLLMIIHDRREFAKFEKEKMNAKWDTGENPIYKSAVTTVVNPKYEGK

## cEGLGEWc
  cell binding to peptide bead: shown to bind
